Source: patent US20230405002A1, “COMBINATIONS OF DIACYLGLYCEROL ACYLTRANSFERASE 2 INHIBITORS AND ACETYL-COA CARBOXYLASE INHIBITOR” (Pfizer Inc., priority 2020, published 2023)
Where a name gives a salt, the structure may show the parent alone. One block for each compound: values may come before it.

Experiments:
[1] = tested on: human hepatocytes; experiment: High throughput intrinsic clearance in human hepatocytes; details: high throughput human hepatocyte assay, 1 μM
[2] = tested on: human liver microsomes; experiment: Intrinsic clearance in human liver microsomes; details: human liver microsome assay, 1 μM
[3] = target: human DGAT2 (hDGAT2) (Homo sapiens (Human), UniProt Q96PD7); experiment: In vitro DGAT2 assay, determination of IC50 values; assay type: biochemical; details: geometric mean; hDGAT2 membrane fraction
[4] = Determination of pKa (capillary electrophoresis); details: most basic pKa, mean
[5] = target: DGAT2 in human hepatocytes (Homo sapiens (Human), UniProt Q96PD7); experiment: Determination of IC50 values for DGAT2 inhibitors in human hepatocytes; assay type: cell-based; details: geometric mean; cryopreserved human hepatocytes, DGAT1 inhibitor 3 μM present
Procedure: For evaluation of the effects of DGAT2 inhibitors in a cell-based setting, cryopreserved human hepatocytes (Lot DOO, Celsis, Baltimore, MD) were thawed and plated onto type I collagen-coated plates according to the manufacturer's instructions. After 18 hours overnight recovery period, the cells were overlayed with media containing 250 μg/mL Geltrex Basement Membrane Matrix (Thermo Fisher). The following day, media was aspirated and replaced with serum-free Williams Media E (Thermo Fisher) containing 400 μM sodium dodecanoate (Sigma-Aldrich, St. Louis, MO) and 2 mM GlutaMAX (Thermo Fisher). […] DGAT2 inhibitors were then added to the desired final concentration. After a 15 minute preincubation, 0.2 μCi [^14C(U)]-glycerol (Perkin Elmer) was added to each well followed by a 3 hour incubation. At this point the media was removed, and the cells lysed via orbital shaking in isopropyl alcohol: tetrahydrofuran (9:1) for 15 minutes prior to centrifugation at 3000 rpm for 10 minutes. Radiolabeled lipids were resolved using a solvent system by thin layer chromatography with the solvent consisting of hexanes: diethyl ether: glacial acetic acid (75:23:2, v/v/v). After separation, radiolabeled lipids were visualized using the Typhoon 9500 phosphorimaging system (GE). The half maximal inhibitory concentrations (IC50 values) were determined by nonlinear regression analysis of the % inhibition dose response curve using GraphPad Prism (GraphPad Software, Inc., La Jolla, CA).
Table 12 below provides the IC50 values of selected Examples for inhibition of DGAT2 in human hepatocytes in accordance with the above-described assay. Results are reported as geometric mean IC50 values, with the number of replicates (n) shown.

human DGAT2 (hDGAT2), sequence (Q96PD7 whole entry): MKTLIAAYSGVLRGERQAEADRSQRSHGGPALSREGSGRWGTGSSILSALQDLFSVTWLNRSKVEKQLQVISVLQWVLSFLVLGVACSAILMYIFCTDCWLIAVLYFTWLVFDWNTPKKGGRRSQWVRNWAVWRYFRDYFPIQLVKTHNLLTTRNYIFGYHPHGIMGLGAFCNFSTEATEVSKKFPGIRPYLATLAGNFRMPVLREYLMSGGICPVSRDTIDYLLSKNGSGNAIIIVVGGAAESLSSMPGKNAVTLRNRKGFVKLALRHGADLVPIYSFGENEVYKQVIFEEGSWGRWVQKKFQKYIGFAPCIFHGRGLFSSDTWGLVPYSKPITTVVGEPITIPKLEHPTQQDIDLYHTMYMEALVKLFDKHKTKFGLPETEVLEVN
DGAT2 in human hepatocytes, sequence (Q96PD7 whole entry): as above

- IC50 [3]: 39 nM
- Basic pKa [4]: 4.7
SMILES: CCOc1cccnc1Oc1cncc(-c2ncc(C(=O)NC3CCC(C(F)(F)F)NC3)cn2)c1 (single isomer, unassigned; ent-1) [Example 10, 2-{5-[(3-ethoxypyridin-2-yl)oxy]pyridin-3-yl}-N-[6-(trifluoromethyl)piperidin-3-yl]pyrimidine-5-carboxamide, trifluoroacetate salt, ENT-1]

- IC50 [3]: 590 nM
- CLint (+/− STD Dev) [2]: <7 µL/min/mg
SMILES: CCOc1cccnc1Oc1cncc(-c2ncc(C(=O)N[C@H]3CNCC[C@@H]3F)cn2)c1 [Example 12, 2-{5-[(3-ethoxypyridin-2-yl)oxy]pyridin-3-yl}-N-[(3S,4S)-4-fluoropiperidin-3-yl]pyrimidine-5-carboxamide, trifluoroacetate salt]

- IC50 [3]: 4.4 nM
- CLint (+/− Std Dev) [1]: 38 +/− 2.0 μL/min/10^6 cells
- CLint (+/− STD Dev) [2]: >290 µL/min/mg
SMILES: CCOc1cccnc1Oc1cncc(-c2ncc(C(=O)NC3CCC(C(F)(F)F)NC3)cn2)c1 (single isomer, unassigned; ent-2) [Example 11, 2-{5-[(3-ethoxypyridin-2-yl)oxy]pyridin-3-yl}-N-[6-(trifluoromethyl)piperidin-3-yl]pyrimidine-5-carboxamide, trifluoroacetate salt, ENT-2]

- IC50 [3]: 110 nM
- CLint (+/− STD Dev) [2]: <7 µL/min/mg
SMILES: CCOc1cccnc1Oc1cncc(-c2ncc(C(=O)N[C@@H]3CNCC[C@H]3F)cn2)c1 [Example 5, 2-{5-[(3-Ethoxypyridin-2-yl)oxy]pyridin-3-yl}-N-[(3R,4R)-4-fluoropiperidin-3-yl]pyrimidine-5-carboxamide]

- IC50 [3]: 42 nM
SMILES: CCOc1cccnc1Oc1cncc(-c2ncc(C(=O)N[C@H]3CNC[C@H](F)C3)cn2)c1 [Example 7, 2-{5-[(3-ethoxypyridin-2-yl)oxy]pyridin-3-yl}-N-[(3R,5R)-5-fluoropiperidin-3-yl]pyrimidine-5-carboxamide, trifluoroacetate salt]

- IC50 [3]: 140 nM
- IC50 [5]: 20 nM
SMILES: CCOc1cccnc1Oc1cncc(-c2ncc(C(=O)N[C@@H]3CNCC(F)(F)C3)cn2)c1 (single isomer, unassigned) [Example 18, N-[(3S)-5,5-difluoropiperidin-3-yl]-2-{5-[(3-ethoxypyridin-2-yl)oxy]pyridin-3-yl}pyrimidine-5-carboxamide or N-[(3R)-5,5-difluoropiperidin-3-yl]-2-{5-[(3-ethoxypyridin-2-yl)oxy]pyridin-3-yl}pyrimidine-5-carboxamide]

- Basic pKa [4]: 5.3
SMILES: CCOc1cccnc1Oc1cncc(-c2ncc(C(=O)N[C@H]3CC[C@H](C(F)(F)F)NC3)cn2)c1 (racemic) [Example 8, rac-2-{5-[(3-ethoxypyridin-2-yl)oxy]pyridin-3-yl}-N-[(3R,6S)-6-(trifluoromethyl)piperidin-3-yl]pyrimidine-5-carboxamide or rac-2-{5-[(3-ethoxypyridin-2-yl)oxy]pyridin-3-yl}-N-[(3R,6R)-6-(trifluoromethyl)piperidin-3-yl]pyrimidine-5-carboxamide]

- CLint (+/− STD Dev) [2]: >290 µL/min/mg
SMILES: CCOc1cccnc1Oc1cncc(-c2ncc(C(=O)N[C@H]3CC[C@H](C(F)(F)F)NC3)cn2)c1 (racemic) [Example 9, rac-2-{5-[(3-ethoxypyridin-2-yl)oxy]pyridin-3-yl}-N-[(3R,6S)-6-(trifluoromethyl)piperidin-3-yl]pyrimidine-5-carboxamide or rac-2-{5-[(3-ethoxypyridin-2-yl)oxy]pyridin-3-yl}-N-[(3R,6R)-6-(trifluoromethyl)piperidin-3-yl]pyrimidine-5-carboxamide]

The next lines start with the compound.

SMILES: CCOc1cccnc1Oc1cncc(-c2ncc(C(=O)N[C@H]3CNCCC3(F)F)cn2)c1 (single isomer, unassigned) [Example 16, N-[(3S)-4,4-difluoropiperidin-3-yl]-2-{5-[(3-ethoxypyridin-2-yl)oxy]pyridin-3-yl}pyrimidine-5-carboxamide, trifluoroacetate salt or N-[(3R)-4,4-difluoropiperidin-3-yl]-2-{5-[(3-ethoxypyridin-2-yl)oxy]pyridin-3-yl}pyrimidine-5-carboxamide, trifluoroacetate salt]
- CLint (+/− Std Dev) ([1]; trifluoroacetate salt): 4.7 +/− 1.4 μL/min/10^6 cells
- CLint (+/− STD Dev) ([2]; trifluoroacetate salt): 17 µL/min/mg

SMILES: CCOc1cccnc1Oc1cncc(-c2ncc(C(=O)NC3CCCNC3C)cn2)c1 (mixture of isomers) [Example 23, 2-{5-[(3-ethoxypyridin-2-yl)oxy]pyridin-3-yl}-N-(2-methylpiperidin-3-yl)pyrimidine-5-carboxamide, trifluoroacetate salt, mixture of stereoisomers]
- IC50 [3]: 14000 nM

SMILES: CCOc1cccnc1Oc1cncc(-c2ncc(C(=O)N[C@H]3CNCCC3(F)F)cn2)c1 (single isomer, unassigned) [Example 15, N-[(3S)-4,4-difluoropiperidin-3-yl]-2-{5-[(3-ethoxypyridin-2-yl)oxy]pyridin-3-yl}pyrimidine-5-carboxamide, trifluoroacetate salt or N-[(3R)-4,4-difluoropiperidin-3-yl]-2-{5-[(3-ethoxypyridin-2-yl)oxy]pyridin-3-yl}pyrimidine-5-carboxamide, trifluoroacetate salt]
- IC50 [3]: 3300 nM

SMILES: CCOc1cccnc1Oc1cncc(-c2ncc(C(=O)N[C@H]3CNCC[C@H]3C)cn2)c1 (racemic) [Example 20, rac-2-{5-[(3-ethoxypyridin-2-yl)oxy]pyridin-3-yl}-N-[(3R,4R)-4-methylpiperidin-3-yl]pyrimidine-5-carboxamide, trifluoroacetate salt]
- IC50 [3]: 2100 nM

SMILES: CCOc1cc(F)cnc1Oc1cncc(-c2ncc(C(=O)N[C@@H]3CNCC[C@H]3F)cn2)c1 [Example 6, 2-{5-[(3-Ethoxy-5-fluoropyridin-2-yl)oxy]pyridin-3-yl}-N-[(3R,4R)-4-fluoropiperidin-3-yl]pyrimidine-5-carboxamide]
- IC50 [3]: 80 nM
- IC50 [5]: 2.4 nM

SMILES: CCOc1cccnc1Oc1cncc(-c2ncc(C(=O)NC3CNCC(F)(F)C3)cn2)c1 (stereo not drawn) [Example 17, N-(5,5-difluoropiperidin-3-yl)-2-{5-[(3-ethoxypyridin-2-yl)oxy]pyridin-3-yl}pyrimidine-5-carboxamide]
- IC50 [3]: 230 nM

SMILES: CCOc1cc(F)cnc1Oc1cncc(-c2ncc(C(=O)N[C@@H]3CNC[C@@H](F)C3)cn2)c1 [Example 2, 2-{5-[(3-Ethoxy-5-fluoropyridin-2-yl)oxy]pyridin-3-yl}-N-[(3S,5S)-5-fluoropiperidin-3-yl]pyrimidine-5-carboxamide]
- IC50 [3]: 8.6 nM
- IC50 [5]: 4.1 nM

SMILES: CCOc1cc(F)cnc1Oc1cncc(-c2ncc(C(=O)N[C@@H]3CNCC[C@@H]3F)cn2)c1.O=C(O)C(F)(F)F.O=C(O)C(F)(F)F [Example 1, 2-{5-[(3-Ethoxy-5-fluoropyridin-2-yl)oxy]pyridin-3-yl}-N-[(3R,4S)-4-fluoropiperidin-3-yl]pyrimidine-5-carboxamide, bis(trifluoroacetate) salt]
- IC50 [3]: 5.8 nM
- Basic pKa [4]: 7.7
- CLint (+/− Std Dev) [1]: <2.7 +/− 0.72 μL/min/10^6 cells
- CLint (+/− STD Dev) [2]: <7 µL/min/mg

SMILES: CCOc1cc(F)cnc1Oc1cncc(-c2ncc(C(=O)N[C@H]3CNCC[C@@H]3F)cn2)c1 [Example 13, 2-{5-[(3-ethoxy-5-fluoropyridin-2-yl)oxy]pyridin-3-yl}-N-[(3S,4S)-4-fluoropiperidin-3-yl]pyrimidine-5-carboxamide, formate salt]
- IC50 [3]: 57 nM
- IC50 [5]: 3.8 nM
